Reference: patent US9394282B2, “Pyrazole carboxamides as Janus kinase inhibitors” (Merck Sharp & Dohme Corp., priority 2011, dated 2016)

Key:
JAK1 = JAK1 (Homo sapiens (Human), UniProt P23458); assay: Jak biochemical HTRF assay, JAK1; conditions: recombinant purified GST-tagged catalytic domain; HTRF format; [ATP] 31.8 μM
Excerpt: (§1) Jak Biochemical HTRF Assay Protocol
(§2) Subsequent reagent additions employed an Agilent Bravo.

JAK2 = JAK2 (Homo sapiens (Human), UniProt O60674); assay: Jak biochemical HTRF assay, JAK2; conditions: recombinant purified GST-tagged catalytic domain, HTRF format
Chain of JAK2 (O60674 849-1124): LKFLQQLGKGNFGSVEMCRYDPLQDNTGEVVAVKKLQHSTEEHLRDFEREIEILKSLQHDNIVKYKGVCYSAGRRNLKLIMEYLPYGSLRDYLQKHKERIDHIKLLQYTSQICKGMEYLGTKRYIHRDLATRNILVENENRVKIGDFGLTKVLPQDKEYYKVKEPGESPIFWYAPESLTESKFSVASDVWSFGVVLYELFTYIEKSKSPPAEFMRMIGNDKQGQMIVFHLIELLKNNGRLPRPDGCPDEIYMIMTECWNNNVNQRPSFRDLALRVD
Excerpt: as §1, §2

Chain of JAK1 (P23458 875-1153): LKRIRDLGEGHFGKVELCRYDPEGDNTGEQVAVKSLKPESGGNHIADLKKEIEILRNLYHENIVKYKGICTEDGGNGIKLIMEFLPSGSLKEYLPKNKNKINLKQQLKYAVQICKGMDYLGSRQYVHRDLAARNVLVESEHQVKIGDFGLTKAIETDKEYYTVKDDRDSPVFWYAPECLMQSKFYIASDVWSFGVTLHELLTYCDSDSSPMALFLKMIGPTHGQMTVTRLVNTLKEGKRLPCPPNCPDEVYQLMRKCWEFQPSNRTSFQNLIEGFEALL

Row | Structure (SMILES) | IC50 (JAK1) [nM] | IC50 (JAK2; [ATP] 8.5 μM) [nM] | IC50 (JAK2; [ATP] […]) [nM]
1 | N#C[C@@H]1CCN(C(=O)OCc2ccccc2)CC1n1cc(C(N)=O)c(Nc2ccc(F)cc2)n1 (mixture of isomers) [Example 5-82, benzyl (3S,4R and 3R,4S)-3-{4-carbamoyl-3-[(4-fluorophenyl)amino]-1H-pyrazol-1-yl}-4-cyanopiperidine-1-carboxylate] | 2 | 53 | –
2 | N#C[C@@H]1CCN(C(=O)OC(CF)CF)CC1n1cc(C(N)=O)c(Nc2ccc(F)cc2)n1 (mixture of isomers) [Example 5-71, 2-fluoro-1-(fluoromethyl)ethyl (3S,4R and 3R,4S)-3-{4-carbamoyl-3-[(4-fluorophenyl)amino]-1H-pyrazol-1-yl}-4-cyanopiperidine-1-carboxylate] | 4 | 44 | –
3 | CC(OC(=O)N1CC[C@H](n2cc(C(N)=O)c(Nc3ccc(F)cc3)n2)[C@H](C#N)C1)C1CC1 (mixture of isomers) [Example 5-68, 1-cyclopropylethyl (3R,4S and 3S,4R)-4-{4-carbamoyl-3-[(4-fluorophenyl)amino]-1H-pyrazol-1-yl}-3-cyanopiperidine-1-carboxylate] | 434 | > 1500 | –
4 | COCCOC(=O)N1CC[C@@H](n2cc(C(N)=O)c(Nc3ccc(F)cc3)n2)[C@H](C#N)C1 (racemic) [Example 5-29, 2-methoxyethyl (3R,4R and 3S,4S)-4-{4-carbamoyl-3-[(4-fluorophenyl)amino]-1H-pyrazol-1-yl}-3-cyanopiperidine-1-carboxylate] | 9 | 202 | –
5 | CN(C)CC(C)(C)COC(=O)N1CC[C@@H](C#N)C(n2cc(C(N)=O)c(Nc3ccc(F)cc3)n2)C1 (mixture of isomers) [Example 5-75, 3-(dimethylamino)-2,2-dimethylpropyl (3S,4R and 3R,4S)-3-{4-carbamoyl-3-[(4-fluorophenyl)amino]-1H-pyrazol-1-yl}-4-cyanopiperidine-1-carboxylate] | 16 | 444 | –
6 | CN1CCC(OC(=O)N2CC[C@@H](n3cc(C(N)=O)c(Nc4ccc(F)cc4)n3)[C@H](C#N)C2)CC1 (racemic) [Example 5-26, 1-methylpiperidin-4-yl (3R,4R and 3S,4S)-4-{4-carbamoyl-3-[(4-fluorophenyl)amino]-1H-pyrazol-1-yl}-3-cyanopiperidine-1-carboxylate] | 58 | > 1500 | –
7 | N#C[C@@H]1CN(C(=O)OCCc2ccccc2)CC[C@H]1n1cc(C(N)=O)c(Nc2ccc(F)cc2)n1 (racemic) [Example 5-36, 2-phenylethyl (3R,4R and 3S,4S)-4-{4-carbamoyl-3-[(4-fluorophenyl)amino]-1H-pyrazol-1-yl}-3-cyanopiperidine-1-carboxylate] | 86 | 823 | –
8 | CCOC(=O)N1CC[C@@H](C#N)C(n2cc(C(N)=O)c(Nc3ccc(F)cc3)n2)C1 (mixture of isomers) [Example 5-76, ethyl (3S,4R and 3R,4S)-3-{4-carbamoyl-3-[(4-fluorophenyl)ainino]-1H-pyrazol-1-yl}-4-cyanopiperidine-1-carboxylate] | 5 | 62 | –
9 | N#C[C@@H]1CN(C(=O)OC2Cc3ccccc3C2)CC[C@@H]1n1cc(C(N)=O)c(Nc2ccc(F)cc2)n1 (racemic) [Example 5-42, 2,3-dihydro-1H-inden-2-yl (3R,4S and 3S,4R)-4-{4-carbamoyl-3-[(4-fluorophenyl)amino]-1H-pyrazol-1-yl}-3-cyanopiperidine-1-carboxylate] | 652 | > 1500 | –
10 | N#C[C@@H]1CN(C(=O)OCC(F)(F)CO)CC[C@@H]1n1cc(C(N)=O)c(Nc2ccc(F)cc2)n1 (racemic) [Example 5-67, 2,2-difluoro-3-hydroxypropyl (3R,4S and 3S,4R)-4-{4-carbamoyl-3-[(4-fluorophenyl)amino]-1H-pyrazol-1-yl}-3-cyanopiperidine-1-carboxylate] | 69 | 1200 | –
11 | CC(C)(C)COC(=O)N1CC[C@@H](C#N)C(n2cc(C(N)=O)c(Nc3ccc(F)cc3)n2)C1 (mixture of isomers) [Example 5-80, 2,2-dimethylpropyl (3S,4R and 3R,4S)-3-{4-carbamoyl-3-[(4-fluorophenyl)amino]-1H-pyrazol-1-yl}-4-cyanopiperidine-1-carboxylate] | 6 | 145 | –
12 | N#C[C@@H]1CN(C(=O)OCCF)CC[C@@H]1n1cc(C(N)=O)c(Nc2ccc(F)cc2)n1 (racemic) [Example 5-58, 2-fluoroethyl (3R,4S and 3S,4R)-4-{4-carbamoyl-3-[(4-fluorophenyl)amino]-1H-pyrazol-1-yl}-3-cyanopiperidine-1-carboxylate] | 102 | 1120 | –
13 | CC(C)(C)OC(=O)N1CCC(n2cc(C(N)=O)c(Nc3ccc(F)cc3)n2)[C@H](C#N)C1 (mixture of isomers) [Example 2-2, (3R,4S and 3S,4R)-tert-butyl 4-(4-carbamoyl-3-((4-fluorophenyl)amino)-1H-pyrazol-1-yl)-3-cyanopiperidine-1-carboxylate] | – | 841 | –
14 | N#C[C@@H]1CN(C(=O)OCc2ccccc2)CC[C@H]1n1cc(C(N)=O)c(Nc2ccc(F)cc2)n1 (racemic) [Example 5-12, benzyl (3R,4R and 3S,4S)-4-{4-carbamoyl-3-[(4-fluorophenyl)amino]-1H-pyrazol-1-yl}-3-cyanopiperidine-1-carboxylate] | – | 369 | –
15 | N#C[C@@H]1CCN(C(=O)OCCF)CC1n1cc(C(N)=O)c(Nc2ccc(F)cc2)n1 (mixture of isomers) [Example 5-79, 2-fluoroethyl (3S,4R and 3R,4S)-3-{4-carbamoyl-3-[(4-fluorophenyl)amino]-1H-pyrazol-1-yl}-4-cyanopiperidine-1-carboxylate] | – | 56 | –
16 | C#CCCOC(=O)N1CC[C@@H](n2cc(C(N)=O)c(Nc3ccc(F)cc3)n2)[C@H](C#N)C1 (racemic) [Example 5-34, but-3-yn-1-yl (3R,4R and 3S,4S)-4-{4-carbamoyl-3-[(4-fluorophenyl)amino]-1H-pyrazol-1-yl}-3-cyanopiperidine-1-carboxylate] | – | 154 | –
17 | N#C[C@@H]1CN(C(=O)OC2CCCCC2)CC[C@@H]1n1cc(C(N)=O)c(Nc2ccc(F)cc2)n1 (racemic) [Example 5-61, cyclohexyl (3R,4S and 3S,4R)-4-{4-carbamoyl-3-[(4-fluorophenyl)amino]-1H-pyrazol-1-yl}-3-cyanopiperidine-1-carboxylate] | – | > 1500 | –

The remaining lines, values ahead:

Row | IC50 (JAK1) [nM] | IC50 (JAK2; [ATP] 8.5 μM) [nM] | IC50 (JAK2; [ATP] […]) [nM] | Structure (SMILES)
18 | 0.1 | 0.6 | – | CC1(c2ccc(Nc3nn([C@H]4COCC[C@@H]4C#N)cc3C(N)=O)cc2)COC1 (single isomer, unassigned) [Example 9-24, 1-[(3R,4S or 3S,4R)-4-cyanotetrahydro-2H-pyran-3-yl]-3-{[4-(3-methyloxetan-3-yl)phenyl]amino}-1H-pyrazole-4-carboxamide]
19 | 84 | – | 292 | C[C@@]1(C#N)CS(=O)(=O)C[C@@H]1n1cc(C(N)=O)c(Nc2ccc(F)cc2)n1 (single isomer, unassigned) [Example 14-2, 1-((3R,4R or 3S,4S)-4-Cyano-4-methyl-1,1-dioxidotetrahydrothiophen-3-yl)-3-((4-fluorophenyl)amino)-1H-pyrazole-4-carboxamide]
20 | 2 | 22 | – | N#C[C@@H]1CCN(Cc2ncco2)C[C@H]1n1cc(C(N)=O)c(Nc2ccc(F)cc2)n1 (racemic) [Example 6-8, 1-[(3S,4R and 3R,4S)-4-cyano-1-(1,3-oxazol-2-ylmethyl)piperidin-3-yl]-3-[(4-fluorophenyl)amino]-1H-pyrazole-4-carboxamide]
21 | 6 | 21 | – | CC1(c2ccc(Nc3nn([C@@H]4COCC[C@H]4C#N)cc3C(N)=O)cc2)COC1 (single isomer, unassigned) [Example 9-26, 1-[(3S,4R or 3R,4S)-4-cyanotetrahydro-2H-pyran-3-yl]-3-{[4-(3-methyloxetan-3-yl)phenyl]amino}1H-pyrazole-4-carboxamide]
22 | 6 | 98 | – | CC1=NOC(CN2CC[C@@H](C#N)[C@H](n3cc(C(N)=O)c(Nc4ccc(F)cc4)n3)C2)C1 (mixture of isomers) [Example 6-20, 1-{(3S,4R and 3R,4S)-4-cyano-1-[(3-methyl-4,5-dihydroisoxazol-5-yI)methyl]piperidin-3-yl}-3-[(4-fluorophenyl)amino]-1H-pyrazole-4-carboxamide]
23 | 5 | 104 | – | Cc1ncc(CN2CC[C@@H](n3cc(C(N)=O)c(Nc4ccc(F)cc4)n3)[C@H](C#N)C2)s1 (racemic) [Example 6-37, 1-{(3R,4R and 3S,4S)-3-cyano-1-[(2-methyl-1,3-thiazol-5-yl)methyl]piperidin-4-yl}-3-[(4-fluorophenyl)amino]-1H-pyrazole-4-carboxamide]
24 | 5 | 79 | – | N#C[C@@H]1CN(Cc2cccnc2F)CC[C@H]1n1cc(C(N)=O)c(Nc2ccc(F)cc2)n1 (racemic) [Example 6-35, 1-{(3R,4R and 3S,4S)-3-cyano-1-[(2-fluoropyridin-3-yl)methyl]piperidin-4-yl}-3-[(4-fluorophenyl)amino]-1H-pyrazole-4-carboxamide]
25 | – | 47 | – | N#C[C@@H]1CCN(Cc2cc(F)ccn2)C[C@H]1n1cc(C(N)=O)c(Nc2ccc(F)cc2)n1 (racemic) [Example 6-7, 1-{(3S,4R and 3R,4S)-4-cyano-1-[(4-fluoropyridin-2-yl)methyl]piperidin-3-yl}-3-[(4-fluorophenyl)amino]-1H-pyrazole-4-carboxamide]
26 | – | 15 | – | N#C[C@@H]1CS(=O)(=O)CC1n1cc(C(N)=O)c(Nc2ccc(S(=O)(=O)C(F)(F)F)cc2)n1 (mixture of isomers) [Example 8-7, 1-((3S,4R and 3R,4S)-4-cyano-1,1-dioxidotetrahydrothiophen-3-yl)-3-((4-((trifluoromethyl)sulfonyl)phenyl)amino)-1H-pyrazole-4-carboxamide]
27 | – | 37 | – | N#C[C@@H]1CN(Cc2cscn2)CC[C@H]1n1cc(C(N)=O)c(Nc2ccc(F)cc2)n1 (racemic) [Example 6-27, 1-[(3R,4R and 3S,4S)-3-cyano-1-(1,3-thiazol-4-ylmethyl)piperidin-4-yl]-3-[(4-fluorophenyl)amino]-1H-pyrazole-4-carboxamide]
